Laboratory results: ChEMBL document CHEMBL4828757, “Further hit optimization of 6-(trifluoromethyl)pyrimidin-2-amine based TLR8 modulators: Synthesis, biological evaluation and structure-activity relationships” (Eur J Med Chem, 2021)
The source made the active and inactive calls. The rule behind the calls is not given here.

Biological target: T1, Toll-like receptor 8 (Homo sapiens) (UniProt Q9NR97)
T1 sequence (whole entry): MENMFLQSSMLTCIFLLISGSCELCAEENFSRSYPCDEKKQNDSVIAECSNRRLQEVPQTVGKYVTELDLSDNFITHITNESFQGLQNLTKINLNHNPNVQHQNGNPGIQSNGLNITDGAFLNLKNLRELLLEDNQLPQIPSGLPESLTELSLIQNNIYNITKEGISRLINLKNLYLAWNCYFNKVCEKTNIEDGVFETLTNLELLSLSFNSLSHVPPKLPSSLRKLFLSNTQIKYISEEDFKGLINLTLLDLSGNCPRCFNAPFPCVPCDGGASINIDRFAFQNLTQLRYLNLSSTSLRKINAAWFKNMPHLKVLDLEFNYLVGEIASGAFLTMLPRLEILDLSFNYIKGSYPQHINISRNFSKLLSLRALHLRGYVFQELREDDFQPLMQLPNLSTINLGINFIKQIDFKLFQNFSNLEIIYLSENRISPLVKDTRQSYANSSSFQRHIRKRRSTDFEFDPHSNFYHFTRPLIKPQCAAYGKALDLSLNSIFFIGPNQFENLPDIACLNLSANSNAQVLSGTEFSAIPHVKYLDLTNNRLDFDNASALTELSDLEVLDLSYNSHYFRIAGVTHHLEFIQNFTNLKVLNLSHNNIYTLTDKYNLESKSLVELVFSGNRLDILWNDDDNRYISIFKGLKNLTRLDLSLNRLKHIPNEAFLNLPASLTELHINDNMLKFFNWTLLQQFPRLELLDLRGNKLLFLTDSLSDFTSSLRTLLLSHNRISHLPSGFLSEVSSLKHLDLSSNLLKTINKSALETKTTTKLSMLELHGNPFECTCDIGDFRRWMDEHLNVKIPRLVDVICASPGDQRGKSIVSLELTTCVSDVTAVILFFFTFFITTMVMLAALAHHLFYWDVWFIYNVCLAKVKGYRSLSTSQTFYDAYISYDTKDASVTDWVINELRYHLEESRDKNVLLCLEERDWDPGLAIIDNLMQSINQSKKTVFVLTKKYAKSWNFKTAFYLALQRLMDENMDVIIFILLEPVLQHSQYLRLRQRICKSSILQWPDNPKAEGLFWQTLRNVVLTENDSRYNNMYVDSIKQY
Test: Negative modulator activity at human TLR8 expressed in HEK-Blue hTLR8 cells assessed as inhibition of TL8-506 stimulated NF-kappaB activation at 10 uM preincubated with compound for 1 hr followed by TL8-506 stimulation for 24 hrs by SEAP-based colorimetric assay
Format: cell-based
Details: filed as modulator, time 25.0 hrs

Row | inhibition [%] | SMILES
1 | 50 | FC(F)(F)c1cc(-c2ccccc2)nc(NCc2cccs2)n1

Biological target: T1, Toll-like receptor 8 (Homo sapiens)
Test: (§1) Negative modulator activity at human TLR8 expressed in HEK-Blue hTLR8 cells assessed as inhibition of TL8-506 stimulated NF-kappaB activation preincubated with compound for 1 hr followed by TL8-506 stimulation for 24 hrs by SEAP-based colorimetric assay
Format: cell-based
Details: filed as modulator, time 25.0 hrs

Row | inhibition | SMILES
2 | Active | Cc1ccc(-c2cc(C(F)(F)F)nc(NCc3cccs3)n2)cc1
3 | Active | COc1ccc(-c2cc(C(F)(F)F)nc(NCc3cccs3)n2)cc1
4 | Active | Cc1cc(-c2ccco2)nc(NCc2cccs2)n1

Same assay, conditions: time 25.0 hrs

Row | SMILES | inhibition
5 | CC(C)CNc1nc(-c2ccco2)cc(C(F)(F)F)n1 | inactive
6 | FC(F)(F)c1cc(-c2ccco2)nc(NCCN2CCOCC2)n1 | inactive
7 | FC(F)(F)c1cc(-c2ccco2)nc(NC2CCC2)n1 | inactive
8 | OCCNc1nc(-c2ccco2)cc(C(F)(F)F)n1 | inactive
9 | FC(F)(F)c1cc(-c2ccco2)nc(NC2CC2)n1 | inactive
10 | FC(F)(F)c1cc(-c2ccco2)nc(NCC2CC2)n1 | inactive
11 | FC(F)(F)c1cc(-c2ccco2)nc(NC2CCCCC2)n1 | inactive
12 | C=CCNc1nc(-c2ccco2)cc(C(F)(F)F)n1 | inactive
13 | CCCNc1nc(-c2ccco2)cc(C(F)(F)F)n1 | inactive
14 | CCNc1nc(-c2ccco2)cc(C(F)(F)F)n1 | inactive
15 | FC(F)(F)c1ccnc(NCc2cccs2)n1 | inactive
16 | FC(F)(F)c1cc(C2CCCCC2)nc(NCc2cccs2)n1 | inactive
17 | FC(F)(F)c1cc(-c2ccco2)ncn1 | inactive

Continued, values first:

Row | inhibition | SMILES
18 | inactive | CCCCCCNc1nc(-c2ccco2)cc(C(F)(F)F)n1
19 | inactive | CC(C)Nc1nc(-c2ccco2)cc(C(F)(F)F)n1
20 | inactive | CCCCNc1nc(-c2ccco2)cc(C(F)(F)F)n1
21 | inactive | FC(F)(F)c1cc(-c2ccco2)nc(NC2CCCC2)n1
22 | inactive | OCCOCCNc1nc(-c2ccco2)cc(C(F)(F)F)n1
23 | inactive | c1coc(-c2ccnc(NCc3cccs3)n2)c1
24 | inactive | Cc1cc(C(F)(F)F)nc(NCc2cccs2)n1

Biological target: T2, Toll-like receptor 8 (Homo sapiens, UniProt Q9NR97)
T2 sequence (Q9NR97 whole entry): T1 sequence (whole entry)
Test: as §1
Format: cell-based
Details: hek-blue htlr8

Row | SMILES | IC50
25 | Oc1cccc(CNc2nc(-c3ccccc3)cc(C(F)(F)F)n2)c1 | Not Active
26 | COc1cccc(CNc2nc(-c3ccco3)cc(C(F)(F)F)n2)c1 | Not Active
27 | O=C(O)c1ccc(CNc2nc(-c3ccco3)cc(C(F)(F)F)n2)cc1 | Not Active
28 | COc1ccc(CNc2nc(-c3ccco3)cc(C(F)(F)F)n2)cc1 | Not Active

Second part, the compound after the results:

Row | IC50 | SMILES
29 | Not Active | OCc1cccc(CNc2nc(-c3ccco3)cc(C(F)(F)F)n2)c1
30 | Not Active | CS(=O)(=O)c1nc(-c2ccccc2)cc(C(F)(F)F)n1

Same assay, conditions: read-out: IC50

Row | SMILES | IC50 [µM]
31 | Oc1cccc(CNc2nc(C3CCCCC3)cc(C(F)(F)F)n2)c1 | 22
32 | FC(F)(F)c1cc(-c2ccco2)nc(Nc2ccccc2)n1 | 77
33 | FC(F)(F)c1cc(-c2ccco2)nc(NCc2ccccc2)n1 | > 100
34 | FC(F)(F)c1cc(-c2ccco2)nc(NCCc2ccccc2)n1 | > 100

The remaining lines, values ahead:

Row | IC50 [µM] | SMILES
35 | 23 | Oc1cccc(CNc2nc(-c3ccco3)cc(C(F)(F)F)n2)c1
36 | 11 | Oc1ccc(CNc2nc(-c3ccco3)cc(C(F)(F)F)n2)cc1

Test system: not listed separately
Test: Cytotoxicity against human PBMC cells assessed as reduction in cell viability at 10 uM incubated for 48 hrs by MTS assay
Format: cell-based
Details: not given

Row | SMILES | Activity
37 | CS(=O)(=O)c1nc(-c2ccco2)cc(C(F)(F)F)n1 | Toxic

Test system: not listed separately
Test: Cytotoxicity against human PBMC cells assessed as reduction in cell viability up to 50 uM incubated for 48 hrs by MTS assay
Format: cell-based
Details: not given

Row | SMILES | Activity
38 | OCc1ccc(CNc2nc(-c3ccco3)cc(C(F)(F)F)n2)cc1 | Non-Toxic

Biological target: T1, Toll-like receptor 8 (Homo sapiens)
Test: Negative modulator activity at human TLR8 expressed in HEK-Blue hTLR8 cells assessed as inhibition of TL8-506 stimulated NF-kappaB activation at 25 uM preincubated with compound for 1 hr followed by TL8-506 stimulation for 24 hrs by SEAP-based colorimetric assay
Format: cell-based
Details: filed as modulator, time 25.0 hrs

Row | inhibition [%] | SMILES
39 | 50 | NCc1cccc(CNc2nc(-c3ccco3)cc(C(F)(F)F)n2)c1
40 | 60 | FC(F)(F)c1cc(-c2ccccc2)nc(NCc2cccs2)n1
41 | 75 | NCc1ccc(CNc2nc(-c3ccco3)cc(C(F)(F)F)n2)cc1

Test system: not listed separately
Test: Cytotoxicity against human HEK-Blue hTLR8 cells assessed as reduction in cell viability at 50 uM by MTT assay
Format: cell-based
Details: HEK-Blue hTLR8 cells, read-out: INH

Row | SMILES | cytotoxicity at 50 µM [%]
42 | FC(F)(F)c1cc(-c2ccccc2)nc(NCc2cccs2)n1 | 40

Same assay, conditions: hek-blue htlr8, 50 µM

Row | SMILES | Activity
43 | NCc1cccc(CNc2nc(-c3ccco3)cc(C(F)(F)F)n2)c1 | Toxic
44 | NCc1ccc(CNc2nc(-c3ccco3)cc(C(F)(F)F)n2)cc1 | Toxic
